Where “and” joins values, the source holds several entries; their conditions need not be identical. Identical values can stand only once. ± gives the expanded uncertainty stated by the source.
Experiment: xn = mol fraction of the nth substance listed
Details: Fluid (supercritical or subcritical phases), Vibrating tube method

Cc1c(C)c2c(c(C)c1O)CC[C@@](C)(CCC[C@H](C)CCC[C@H](C)CCCC(C)C)O2 [(+)-α-tocopherol] + O=C=O
mass density
Details	x1 = 0.0004	x1 = 0.00042	x1 = 0.00043	x1 = 0.0005	x1 = 0.00059	x1 = 0.00074	x1 = 0.00081
308.15 K, 10000 kPa	720.4 ± 2.1 kg/m3	718.9 ± 2.5 kg/m3 and 720.9 ± 2.2 kg/m3	720.6 ± 2.1 kg/m3	720.3 ± 2.1 kg/m3	720.2 ± 2.1 kg/m3	721.2 ± 2.1 kg/m3	720.9 ± 2.1 kg/m3
308.15 K, 15000 kPa	817.8 ± 13 kg/m3	816.9 ± 17 kg/m3 and 818.1 ± 17 kg/m3	818.2 ± 8.6 kg/m3	817.9 ± 1.7 kg/m3	817.8 ± 2.4 kg/m3	818.6 ± 8.3 kg/m3	818.7 ± 5.8 kg/m3
308.15 K, 20000 kPa	867.2 ± 6.5 kg/m3	866.7 ± 8.7 kg/m3 and 867.6 ± 8.5 kg/m3	867.5 ± 4.3 kg/m3	867.4 ± 1 kg/m3	867.3 ± 1.4 kg/m3	868 ± 4 kg/m3	868.2 ± 2.7 kg/m3
308.15 K, 30000 kPa	929.5 ± 5.4 kg/m3	929.3 ± 7.2 kg/m3 and 929.6 ± 7.1 kg/m3	929.6 ± 3.6 kg/m3	929.6 ± 0.8 kg/m3	929.6 ± 1.1 kg/m3	930 ± 3.4 kg/m3	930.1 ± 2.3 kg/m3
308.15 K, 40000 kPa	971.9 ± 0.7 kg/m3	971.9 ± 0.8 kg/m3 and 972 ± 0.7 kg/m3	972 ± 0.7 kg/m3	972 ± 0.7 kg/m3	972 ± 0.7 kg/m3	972.2 ± 0.8 kg/m3	972.3 ± 0.8 kg/m3
313.15 K, 10000 kPa	639 ± 14 kg/m3	639 ± 18 kg/m3 and 638.8 ± 18 kg/m3	638.7 ± 9.5 kg/m3	639.4 ± 3.2 kg/m3	638.9 ± 3.7 kg/m3	640 ± 9 kg/m3	639.8 ± 6.7 kg/m3
313.15 K, 15000 kPa	782.3 ± 15 kg/m3	782.6 kg/m3 and 782.3 kg/m3	782.5 ± 9.7 kg/m3	782.8 ± 2.2 kg/m3	782.4 ± 3.2 kg/m3	783.3 ± 9.8 kg/m3	783.1 ± 6.9 kg/m3
313.15 K, 20000 kPa	841 ± 5.6 kg/m3	841.2 ± 7 kg/m3 and 840.9 ± 7 kg/m3	841.2 ± 3.6 kg/m3	841.3 ± 1.1 kg/m3	841.1 ± 1.4 kg/m3	841.7 ± 3.3 kg/m3	841.6 ± 2.4 kg/m3
313.15 K, 30000 kPa	910.2 ± 4.2 kg/m3	910.3 ± 290 kg/m3 and 910.1 ± 290 kg/m3	910.3 ± 2.7 kg/m3	910.4 ± 0.9 kg/m3	910.3 ± 1.1 kg/m3	910.7 ± 2.6 kg/m3	910.6 ± 1.9 kg/m3
313.15 K, 40000 kPa	955.9 ± 0.8 kg/m3	955.9 ± 0.8 kg/m3 and 955.7 ± 0.8 kg/m3	955.9 ± 0.8 kg/m3	955.9 ± 0.8 kg/m3	956 ± 0.8 kg/m3	956.1 ± 0.8 kg/m3	956 ± 0.8 kg/m3
323.15 K, 10000 kPa	398.5 ± 38 kg/m3	398.3 ± 50 kg/m3 and 398.5 ± 50 kg/m3	398.3 ± 25 kg/m3	398.4 ± 5.8 kg/m3	398.8 ± 7 kg/m3	398.9 ± 26 kg/m3	398.7 ± 18 kg/m3
323.15 K, 15000 kPa	703.6 ± 38 kg/m3	703.1 kg/m3 and 703.4 kg/m3	703.4 ± 24 kg/m3	703.5 ± 4.4 kg/m3	703.4 ± 6.9 kg/m3	704.1 ± 25 kg/m3	704.1 ± 18 kg/m3
323.15 K, 20000 kPa	786.2 ± 8.9 kg/m3	785.8 ± 11 kg/m3 and 786 ± 11 kg/m3	786 ± 5.8 kg/m3	786 ± 1.3 kg/m3	786 ± 1.9 kg/m3	786.6 ± 5.8 kg/m3	786.6 ± 4 kg/m3
323.15 K, 30000 kPa	871.2 ± 5.6 kg/m3	870.9 ± 100 kg/m3 and 871.1 ± 100 kg/m3	871 ± 3.6 kg/m3	871.1 ± 1 kg/m3	871.1 ± 1.3 kg/m3	871.5 ± 3.6 kg/m3	871.6 ± 2.5 kg/m3
323.15 K, 40000 kPa	923.3 ± 0.8 kg/m3	923.1 ± 0.8 kg/m3 and 923.3 ± 0.8 kg/m3	923.3 ± 0.8 kg/m3	923.3 ± 0.8 kg/m3	923.2 ± 0.8 kg/m3	923.6 ± 0.8 kg/m3	923.6 ± 0.8 kg/m3
333.15 K, 10000 kPa	297.2 ± 6.3 kg/m3	297.1 ± 6.3 kg/m3 and 296.8 ± 6.3 kg/m3	296.9 ± 6.3 kg/m3	297.1 ± 6.3 kg/m3	297.3 ± 6.3 kg/m3	297.7 ± 6.3 kg/m3	297.7 ± 6.3 kg/m3
333.15 K, 15000 kPa	608.6 ± 52 kg/m3	608.9 ± 69 kg/m3 and 608.8 ± 69 kg/m3	608.7 ± 35 kg/m3	608.7 ± 4.9 kg/m3	609.3 ± 7.8 kg/m3	609.3 ± 35 kg/m3	609.4 ± 24 kg/m3
333.15 K, 20000 kPa	725.7 ± 22 kg/m3	725.6 ± 30 kg/m3 and 725.5 ± 30 kg/m3	725.5 ± 15 kg/m3	725.7 ± 1.8 kg/m3	725.8 ± 3.1 kg/m3	726.1 ± 15 kg/m3	726.2 ± 10 kg/m3
333.15 K, 30000 kPa	830.3 ± 12 kg/m3	830.3 ± 16 kg/m3 and 830.2 ± 16 kg/m3	830.2 ± 8.1 kg/m3	830.3 ± 1.2 kg/m3	830.5 ± 1.9 kg/m3	830.7 ± 7.9 kg/m3	830.7 ± 5.4 kg/m3
333.15 K, 40000 kPa	890.2 ± 0.9 kg/m3	890.2 ± 0.9 kg/m3 and 890.1 ± 0.9 kg/m3	890.1 ± 0.9 kg/m3	890.1 ± 0.9 kg/m3	890.3 ± 0.9 kg/m3	890.5 ± 0.9 kg/m3	890.5 ± 0.9 kg/m3
